18 molecules from ChEMBL document CHEMBL1153073, “Semi-synthesis and anti-proliferative activity evaluation of novel analogues of Honokiol” (Bioorg Med Chem Lett, 2009) can be followed below.

Structures are written as SMILES. pIC50: −log10 of the molar value.

Type in all cases: functional, cell-based
One test relates to K562. Put plainly: Antiproliferative activity against human K562 cells by MTT assay. (Tetrazolium dyes change colour on reduction, which living cells bring about.)
The nature of test [1]: Antiproliferative activity against human SPC-A1 cells by MTT assay. As to conditions: SPCA1.
The test system of the next test is A549. Put plainly: Antiproliferative activity against human A549 cells by MTT assay.
The test system of test [2] is A2780. Put plainly: Antiproliferative activity against cisplatin-sensitive human A2780 cells by MTT assay.
For test [3], the system named is A2780. Description: Antiproliferative activity against cisplatin-resistant human A2780 cells by MTT assay.

As a reminder, the pIC50 is the negative decadic logarithm of the IC50, by convention in mol/L. Lower therefore signals a high IC50. As for `C=CCc1cc(/C=N/Nc2ccccc2)c(O)c(-c2ccc(O)c(CC=C)c2)c1`, the pIC50 (in the test on K562; in test [1]; in the test with A549) was < 3.98 throughout.

Take `C=CCc1cc(-c2ccc(O)c(CC=C)c2)c2oncc2c1`: the figures for the pIC50 (in the test with K562; in test [1]; in the test with A549) were 4.11, 4.11 and 4.18, respectively.

For the molecule `C=CCc1cc(/C=N/C2CCCCC2)c(O)c(-c2ccc(O)c(CC=C)c2)c1`, the pIC50 with K562 was 4.04; in test [1], 4.06; in the test with A549, 4.03.

As for `C=CCc1cc(/C=N\O)c(O)c(-c2ccc(O)c(CC=C)c2)c1`, the pIC50 with K562 is 4.68; in test [1] it was 4.35; in the test on A549, 4.39; in the test on A2780 [2], 4.48; in the test with A2780 [3], 4.43.

Turning to `C=CCc1ccc(O)c(-c2cc(/C=N/O)c(O)c(CC=C)c2)c1`, the pIC50 is 4.60 in the test on K562, 4.27 in test [1] and 4.40 in the test on A549.

`C=CCc1ccc(O)c(-c2cc(/C=C3\SC(=O)NC3=O)c(O)c(CC=C)c2)c1`: the values for the pIC50 (in the test with K562; in test [1]; in the test with A549) were 4.09, < 3.99 and < 3.99, respectively.

On to `C=CCc1ccc(O)c(-c2cc(/C=C(\C#N)C(=O)OCC)c(O)c(CC=C)c2)c1`, for which the pIC50 in the test on K562 was 4.32; in test [1], 4.21; with A549 it was 4.24.

For the molecule `C=CCc1cc(/C=N\O)c(O)c(-c2cc(/C=N/O)c(O)c(CC=C)c2)c1`, the pIC50 is 4.67 in the test on K562; 4.36 in test [1]; 4.49 with A549; 4.69 in the test on A2780 [2]; 4.53 with A2780 [3].

For the molecule `C=CCc1cc(/C=C2\SC(=O)NC2=O)c(O)c(-c2cc(/C=C3\SC(=O)NC3=O)c(O)c(CC=C)c2)c1`, the pIC50 (in the test on K562; in test [1]; with A549) was < 4.11 throughout.

Take `C=CCc1cc(/C=N/CCCCCC)c(O)c(-c2ccc(O)c(CC=C)c2)c1`: the pIC50 (with K562; in test [1]; in the test on A549) was < 3.97 in each case.

Turning to `C=CCc1cc(/C=C(\C#N)C(=O)OCC)c(O)c(-c2ccc(O)c(CC=C)c2)c1`, the pIC50 with K562 is 4.02; in test [1], 4.03; in the test with A549, 4.06.

`C=CCc1cc(/C=N/c2ccccc2)c(O)c(-c2ccc(O)c(CC=C)c2)c1`: the pIC50 in the test with K562 was 4.49; in test [1] it was 4.39; with A549 it was 4.40.

As to `C=CCc1cc(C=O)c(O)c(-c2cc(C=O)c(O)c(CC=C)c2)c1`, the pIC50 was 4.44 in the test on K562, 4.34 in test [1] and 4.26 with A549.

With `C=CCc1cc(C=O)c(O)c(-c2ccc(O)c(CC=C)c2)c1`, the figures for the pIC50 (in the test with K562; in test [1]; in the test on A549) were 4.41, 4.42 and 4.38, respectively.

For `C=CCc1cc(/C=N/CCN)c(O)c(-c2ccc(O)c(CC=C)c2)c1`, the figures for the pIC50 (in the test on K562; in test [1]; in the test on A549) were 4.37, 4.30 and 4.39, respectively.

Consider `C=CCc1cc(/C=C2\SC(=O)NC2=O)c(O)c(-c2ccc(O)c(CC=C)c2)c1`, for which the figures for the pIC50 (in the test on K562; in test [1]; with A549) were 4.04, < 3.99 and 4.04, respectively.

Consider `C=CCc1ccc(O)c(-c2cc(C=O)c(O)c(CC=C)c2)c1`, for which the pIC50 in the test on K562 is 4.92; in test [1], 4.59; in the test on A549, 4.38; with A2780 [2] it was 4.78; with A2780 [3] it was 4.65.

`C=CCc1ccc(O)c(-c2ccc(O)c(CC=C)c2)c1` [HONOKIOL]: the pIC50 in the test on K562 is 4.68; in test [1] it was 4.44; with A549, 4.46; in the test on A2780 [2], 4.52; in the test with A2780 [3], 4.39.
